The record followed here is paper PMC12132917, “Carborane‐Based Analogs of Celecoxib and Flurbiprofen, their COX Inhibition Potential, and COX Selectivity Index” (Chemmedchem, 2025).

Read-outs that look alike come from different tables or passages of the source. Marks after values point to notes of the source that are not given here.

Broadly, the IC50 is the concentration that inhibits the measured activity by half.

In series [1] the target is T1, ovine COX‐1 (Ovis aries, UniProt P05979).
T1 construct: purchased Cayman Chemical Company
T1 sequence (P05979 25-600): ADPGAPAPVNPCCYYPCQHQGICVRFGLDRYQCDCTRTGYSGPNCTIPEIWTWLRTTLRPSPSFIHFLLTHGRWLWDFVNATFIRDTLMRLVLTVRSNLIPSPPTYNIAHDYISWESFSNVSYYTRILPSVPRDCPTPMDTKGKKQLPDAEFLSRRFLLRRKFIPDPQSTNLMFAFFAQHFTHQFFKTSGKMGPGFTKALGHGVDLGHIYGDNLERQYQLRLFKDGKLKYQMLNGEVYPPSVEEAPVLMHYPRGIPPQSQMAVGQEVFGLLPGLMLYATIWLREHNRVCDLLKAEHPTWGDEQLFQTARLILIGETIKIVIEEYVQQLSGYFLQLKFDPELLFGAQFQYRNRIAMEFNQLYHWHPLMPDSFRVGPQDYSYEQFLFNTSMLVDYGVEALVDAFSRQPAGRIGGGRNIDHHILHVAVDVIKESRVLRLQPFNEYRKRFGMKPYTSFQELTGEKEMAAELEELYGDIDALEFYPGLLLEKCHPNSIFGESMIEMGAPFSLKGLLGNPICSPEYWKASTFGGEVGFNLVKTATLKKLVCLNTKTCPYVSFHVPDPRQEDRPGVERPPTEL
Put plainly: COX Fluorescent Inhibitor Screening Assay Kit (Cayman), COX-1 inhibition. The note with it: for IC50: read-out: IC50 [μM] (95% CI) COX‐1, absolute IC50. Format: biochemical. The text has this:
(§1) For the cyclooxygenase assays, the fluorescence‐based COX assay “COX Fluorescent Inhibitor Screening Assay Kit” (Cayman Chemical Company, Ann Arbor, MI, USA) was used according to the manufacturer's instructions. […] All concentrations have been tested at least in duplicate.

Series [2] has as its target T2, recombinant human COX‐2 (Homo sapiens, UniProt P35354).
T2 construct: purchased Cayman Chemical Company
T2 sequence (P35354 18-604): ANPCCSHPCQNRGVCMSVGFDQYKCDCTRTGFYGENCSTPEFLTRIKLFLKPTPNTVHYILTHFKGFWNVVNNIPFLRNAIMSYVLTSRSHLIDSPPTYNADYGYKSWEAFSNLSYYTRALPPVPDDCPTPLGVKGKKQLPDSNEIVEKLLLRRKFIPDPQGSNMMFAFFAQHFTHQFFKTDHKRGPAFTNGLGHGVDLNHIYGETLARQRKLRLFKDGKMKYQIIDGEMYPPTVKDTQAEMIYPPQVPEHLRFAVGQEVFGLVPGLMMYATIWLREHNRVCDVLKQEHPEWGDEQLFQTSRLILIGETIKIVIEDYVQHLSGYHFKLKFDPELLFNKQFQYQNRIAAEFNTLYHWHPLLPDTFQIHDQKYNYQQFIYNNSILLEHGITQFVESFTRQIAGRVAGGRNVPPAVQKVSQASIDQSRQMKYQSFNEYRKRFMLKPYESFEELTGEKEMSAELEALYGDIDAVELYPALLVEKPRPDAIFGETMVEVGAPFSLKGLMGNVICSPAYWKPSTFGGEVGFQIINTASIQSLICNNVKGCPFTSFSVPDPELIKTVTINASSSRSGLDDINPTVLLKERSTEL
Format: biochemical. Conditions: for IC50: read-out: IC50 [μM] (95% CI) COX‐2.
Excerpt: as §1

Series [3] in a line: Stability in DMSO/water (1:1, v/v) by HPLC-UV-MS or analytical HPLC. The note with it: DMSO/H2O (1:1, v/v), RP-HPLC. Format: physicochemical. The method, then: The stability of compounds 6, 7, 9, 10, 13a,b, and 14a,b in aqueous solution was studied by HPLC‐UV‐MS or analytical HPLC measurements as well (see Supporting Information for details, “4 HPLC Stability Determination of Compounds 6, 7, 9, 10, 13a, 13b, 14a, 14b”). All compounds except 13a were stable for at least one day (Supporting Information, section 4 ).
The stability was evaluated for all compounds in a mixture of DMSO, dried over molecular sieve, and LC‐MS grade water (1:1, v/v) with the same HPLC‐UV‐MS systems as described under “Purity Determination”. The column, eluent system, flow and MS tool were operated in the same way. For the stability determination, a few milligrams of each compound were dissolved in 1 mL DMSO. To dissolve the compounds, they were vortexed and heated up if necessary. The stock solution was further diluted with water. For that, 50–100 μL of the stock solution was transferred into a vial and the same amount of LC‐MS grade water was added. The two solvents were mixed thoroughly, and the measurement with HPLC‐UV‐MS was directly started. Additionally, measurements were performed in a varying time frame, from 15 or 20 min to 1 day. Usually, the injection volume was 10 μL, and before the measurement of the samples, a blank run with only DMSO/LC‐MS grade water (1:1, v/v) was performed. […] For the latter compounds, the aforementioned system (Agilent 1200 system) and the following gradient was used: 0–3 min 45% eluent B, 3–28 min 45%–95% eluent B, 28–34 min 95% eluent B, 34–35 min 95%–45% eluent B, then 35–40 min 45% eluent B, flow: 0.75 mL min^−1.
4 Stability Determination of Compounds 6, 7, 9, 10, 13a, 13b, 14a, 14b by HPLC A few milligrams of each compound have been dissolved in 1 mL DMSO, which was stored over molecular sieve.
50-100 µL of the DMSO solution have been transferred into a separate vial together with the same amount of LC-MS grade water. The mixture was measured directly after water addition and in time intervals from 20 min to 1 d by HPLC-UV-MS or analytical HPLC measurements. All compounds were stable for at least one day except for […]
rather for its nido-carborane analog, which was anyway the most prominent side product, no further stability measurements have been performed.
Figure S74. RP-HPLC chromatograms of blank (DMSO/H2O, black and green) and compound 6, retention time: 10.5 min, purity after 1 d: >98%.
Figure S75. RP-HPLC chromatograms of blank (DMSO/H2O, blue and pink) and compound 7, retention time: 8.3 min, purity after 1 d: >96%. […]

[4] abbreviates: 100 μM, n = 2, n.i. = no inhibition (%‐inhibition < 5 %).
Setting [5] is: Inhibition at 98 μM instead of 100 μM, n = 2.

“Cesium (R/S)‐2‐[2‐fluoro‐(1,1'‐biphenyl)‐4‐yl]‐N‐(7,8‐nido‐dicarbadodecahydroundecaborate(−1))‐ethylpropanamide [Compound 14b]”: in series [1] (n = 2), the “%‐inhibition at 100 [μM] (n = 2) COX‐1” value came out at 72%. The “SI = IC50(COX‐1)/IC50(COX‐2)” value in series [2] amounted to 2.7. Also, in series [2] (100 µM), the “%‐inhibition at 100 [μM] (n = 2) COX‐2” value is on record as 80%.
As for “Cesium (R/S)‐2‐[2‐fluoro‐(1,1′‐biphenyl)‐4‐yl]‐N‐(7,8‐nido‐dicarbadodecahydroundecaborate(−1))‐methylpropanamide [Compound 14a]”, in series [1] (n = 2), the “%‐inhibition at 100 [μM] (n = 2) COX‐1” value is 94%. In series [2], the “SI = IC50(COX‐1)/IC50(COX‐2)” value turned out to be 1.9. In series [2] (100 µM), the “%‐inhibition at 100 [μM] (n = 2) COX‐2” value stood at 91%.
“Cesium N‐[3‐(7,8‐nido‐dicarbadodecahydroundecaborate(−1))propyl]‐4‐[5‐(p‐tolyl)‐3‐(trifluoromethyl)‐1H‐pyrazol‐1‐yl]benzenesulfonamide [Compound 7]”: in series [1] (n = 2), the “%‐inhibition at 100 [μM] (n = 2) COX‐1” value amounted to 94%. The IC50 stood at 11.2 µM in series [1] and 8.75 µM in series [2] (absolute IC50). Also, in series [2] (setting [4]), the “%‐inhibition at 100 [μM] (n = 2) COX‐2” value is 100%. The “SI = IC50(COX‐1)/IC50(COX‐2)” value in series [2] (selectivity index) amounted to 1.28. In addition, in series [3], the “purity after 1 d” value is listed as > 96%.
For the substance “Di‐cesium N,N‐bis[3‐(7,8‐nido‐dicarbadodecahydroundecaborate(−1))propyl]‐4‐[5‐(p‐tolyl)‐3‐(trifluoromethyl)‐1H‐pyrazol‐1‐yl]benzenesulfonamide [Compound 10]”, in series [1] (n = 2), the “%‐inhibition at 100 [μM] (n = 2) COX‐1” value is 103%. The IC50 in series [1] came out at 3.49 µM. Besides, in series [2] (setting [4]), the “%‐inhibition at 100 [μM] (n = 2) COX‐2” value came to 103%. Besides, in series [2] (absolute IC50), the “IC50 [μM] (95% CI) COX‐2” value was “sub‐μM range” and the IC50 is 0.34 µM. In series [2] (selectivity index), the “SI = IC50(COX‐1)/IC50(COX‐2)” value turned out to be 10.3. Further, the “purity after 1 d” value in series [3] is > 99%.
Turning to “N,N‐Bis[3‐(1,2‐closo‐dicarbadodecaborane)propyl]‐4‐[5‐(p‐tolyl)‐3‐(trifluoromethyl)‐1H‐pyrazol‐1‐yl]benzenesulfonamide [Compound 9]”, the IC50 in series [1] is > 320 µM. In addition, the “purity after 1 d” value in series [3] is given as > 99%.
Take “N‐[3‐(1,2‐closo‐dicarbadodecaborane)propyl]‐4‐[5‐(p‐tolyl)‐3‐(trifluoromethyl)‐1H‐pyrazol‐1‐yl]benzenesulfonamide [Compound 6]”: the “%‐inhibition at 100 [μM] (n = 2) COX‐1” value in series [1] (n = 2) is recorded as ≤ 55%. For the same substance, the “%‐inhibition (n = 2) COX‐1” value in series [1] (setting [5]) was 9 ^b) %. For the same substance, the “%‐inhibition at 100 [μM] (n = 2) COX‐2” value in series [2] (setting [4]) is listed as ≤ 55%. Also, the “%‐inhibition (n = 2) COX‐2” value in series [2] (setting [5]) is 54 ^b) %. Also, the IC50 in series [2] (absolute IC50) was 120 µM. Besides, the “purity after 1 d” value in series [3] is > 98%.
